Experimental data as given in US7517529B2, “Treatment of type I diabetes” (Biotempt B.V., priority 2003, dated 2009).
Ends that are not written are not given here.

Assays:
[1] = test system: NFκB; assay: EMSA of nuclear extracts, basal and LPS-induced NFκB translocation in RAW 264.7 mouse macrophages; type: cell-based; conditions: 30 minutes; for Basal levels of NFκB in the nucleus: peptide without LPS; for LPS-induced translocation of NFκB: LPS in combination with peptide (1 microgr/ml; 1 mg/ml)
Method: RAW 264.7 mouse macrophages were cultured in DMEM, containing 10% or 2% FBS, penicillin, streptomycin and glutamine, at 37° C., 5% CO2. Cells were seeded in a 12-wells plate (3×10^6 cells/ml) in a total volume of 1 ml for two hours and then stimulated with LPS (E. coli 026:B6; Difco Laboratories, Detroit, Mich., USA) and/or gene-regulatory peptide (1 microgr/ml). After 30 minutes of incubation, plates were centrifuged and cells were collected for nuclear extracts. Nuclear extracts and EMSA were prepared according to Schreiber et al. Cells were collected in a tube and centrifuged for five minutes at 2000 rpm (rounds per minute) at 4° C. (Universal 30 RF, Hettich Zentrifuges). The pellet was washed with ice-cold Tris buffered saline (TBS pH 7.4) and resuspended in 400 μl of a hypotonic buffer A (10 mM HEPES pH 7.9, 10 mM KCl, 0.1 mM EDTA, 0.1 mM EGTA, 1 mM DTT, 0.5 mM PMSF and protease inhibitor cocktail (Complete™ Mini, Roche) and left on ice for 15 minutes. Twenty-five microliters 10% NP-40 was added and the sample was centrifuged (two minutes, 4000 rpm, 4° C.). The supernatant (cytoplasmic fraction) was collected and stored at −70° C. The pellet, which contains the nuclei, was washed with 50 μl buffer A and resuspended in 50 μl buffer C (20 mM HEPES pH 7.9, 400 mM NaCl, 1 mM EDTA, 1 mM EGTA, 1 mM DTT, 0.5 mM PMSF and protease inhibitor cocktail and 10% glycerol). The samples were left to shake at 4° C. for at least 60 minutes. Finally the samples were centrifuged and the supernatant (nucleic fraction) was stored at −70° C.
Bradford reagent (Sigma) was used to determine the final protein concentration in the extracts. For electrophoretic mobility shift assays an oligonucleotide representing NFκB-binding sequence (5′-AGCTCAGAGGGGGACTTTCCGAGAG-3′ (SEQ ID NO:28)) was synthesized. Hundred pico mol sense and antisense oligo were annealed and labeled with […] using T4 polynucleotide kinase according to the manufacturer's instructions (Promega, Madison, Wis.). Nuclear extract (5 to 7.5 μg) was incubated for 30 minutes with 75000 cpm probe in binding reaction mixture (20 microliters) containing 0.5 μg poly dI-dC (Amersham Pharmacia Biotech) and binding buffer BSB (25 mM MgCl2, 5 mM CaCl2, 5 mM DTT and 20% Ficoll) at room temperature. The DNA-protein complex was resolved from free oligonucleotide by electrophoresis in a 4 to 6% polyacrylamide gel (150 V, two to four hours). The gel was then dried and exposed to x-ray film. The transcription factor NFκB participates in the transcriptional regulation of a variety of genes. Nuclear protein extracts were prepared from either LPS (1 mg/ml), peptide (1 mg/ml) or LPS in combination with peptide-treated and untreated RAW264.7 cells. In order to determine whether the peptides modulate the translocation of NFκB into the nucleus, on these extracts EMSA was performed. Peptides are able to modulate the basal as well as LPS-induced levels of NFκB. In this experiment peptides that show the inhibition of LPS-induced translocation of NFκB are: […] (SEQ ID NO:21), […] (SEQ ID NO:22), LQG, LQGV (SEQ ID NO:1), […] (SEQ ID NO:23), VLPALP (SEQ ID NO:4), VVC, MTR and circular […] (SEQ ID NO: 17). Peptides that in this experiment promote LPS-induced translocation of NFκB are: VLPALPQ (SEQ ID NO:13), GVLPALP (SEQ ID NO:16) and MTRV (SEQ ID NO:20). Basal levels of NFκB in the nucleus was decreased by […] (SEQ ID NO:21), […] (SEQ ID NO:22), LQG and LQGV (SEQ ID NO:1) while basal levels of NFκB in the nucleus was increased by […] (SEQ ID NO:23), VLPALPQ (SEQ ID NO:13), GVLPALP (SEQ ID NO:16), VVC, MTRV (SEQ ID NO:20), MTR and […].

[2] = test system: relapsing-remitting multiple sclerosis; conditions: treated group, trial of 251 patients; cited from earlier work
[3] = test system: production of NO by a cell; assay: Production of NO by a cell; type: cell-based
[4] = test system: NFκB; assay: Other experiments on translocation of NFκB into nucleus (data not shown); type: cell-based

Row | Substance | Basal levels of NFκB in the nucleus [1] | annual relapse rate reduced by [2] [%] | LPS-induced translocation of NFκB [1] | production of NO by a cell [3] | modulation of translocation of NFκB into nucleus [4]
1 | LQGVLPALPQVVC | increased | – | – | – | –
2 | Glatiramer acetate | – | 25 | – | – | –
3 | VLPALPQVVC | decreased | – | inhibition | capable of reducing production of NO by a cell | –
4 | GVLPALP | increased | – | promote | – | –
5 | LQG | decreased | – | inhibition | capable of reducing production of NO by a cell | –
6 | MTR | increased | – | inhibition | – | –
7 | MTRV | increased | – | promote | – | –
8 | VVC | increased | – | inhibition | – | –
9 | VLPALPQ | increased | – | promote | – | –
10 | circular LQGVLPALPQVVC (also: circular/cyclised, mode not given here) | – | – | inhibition | – | –
11 | QVVC | – | – | – | – | modulation of translocation of NFκB into nucleus
12 | LQGV | decreased | – | inhibition | capable of reducing production of NO by a cell | –
13 | LQGVLPALPQ | decreased | – | inhibition | capable of reducing production of NO by a cell | –
14 | VLPALP | – | – | inhibition | capable of reducing production of NO by a cell | –
15 | GVLPALPQ | increased | – | inhibition | – | –
